Experimental data reported in patent US20220296573A1, “NOVEL COMPOUNDS AND PHARMACEUTICAL COMPOSITIONS THEREOF FOR THE TREATMENT OF INFLAMMATORY DISORDERS” (Galapagos NV, priority 2019, published 2022).
Converted amounts (≈) assume the structure as drawn. Read-outs that look alike come from different tables or passages of the source.

Assay: Thermodynamic solubility
Type: physicochemical
Conditions: for solubility thermodynamic at 24 h: 37 °C, thermodynamic from solid
Method: In a 8 mL glass vial, 1-2 mg of dry matter of compound were added and stirred with the suitable buffers (Fed State Simulated Intestine Fluid, FeSSIF, or Fasted State Simulated Intestine Fluid, FaSSIF, or Fasted State Simulated Gastric Fluid, FaSSGF, or phosphate buffer pH 7.4) for 24 h at r.t. (for the buffer pH 7.4) or 37° C. (for the GI fluids). The concentration of the mixture was 1 mg/mL.
A volume of 1000 μL were sampled, centrifuged for 10 min at 10 000 rpm and 500 μL of the supernatant were filtered on captiva plate. The samples are diluted in duplicates in DMSO (F100 and F10). Then, a final dilution (F100) in 80/20 H2O/MeCN containing the internal standard (warfarin) was used for LCMS-MS analysis.
A standard curve was made starting from a 40,000 ng/mL stock in DMSO, freshly prepared from dry matter. Then, successive concentrations at 15,000, 11,000, 6,000, 2,500, 1,000, 375, 150 and 75 ng/mL in DMSO were prepared.
Three quality control samples were made: one of 10,000, 1,500 and 200 ng/mL in DMSO, also starting from the DMSO working stock solution at 40,000 ng/mL.
The standard curve and quality controls were diluted a F100 in 80/20 H2O/MeCN (with internal standard) and analyzed on LC/MS-MS (API4000 or API5500).
The samples were analyzed on LC-MS with a flow rate of 0.6 mL/min. The mobile phase A was 0.1% formic acid in water and the mobile phase B was 0.1% formic acid in 90% MeCN and 10% of water. The sample was run under positive or negative ion spray on Pursuit C18—5 μm (2.0×20 mm) column, from Agilent.
The ratio analyte/internal standard peaks areas of the standard curve were plotted in a graph and a linear or polynomial of the second order equation was used to calculate the unknown concentrations of the test compound.
Solubility values were reported in μM and g/mL.

[1] = Fasted State Simulated Gastric Fluid (FaSSGF), fassgf or other biorelevant, Fasted State Simulated Gastric Fluid, read-out: Tsol FaSSGF
[2] = Fasted State Simulated Intestine Fluid, 24 h, 37° C.
[3] = Fed State Simulated Intestine Fluid (FeSSIF), fessif, Fed State Simulated Intestine Fluid, read-out: Tsol FeSSIF
[4] = Fasted State Simulated Intestine Fluid (FaSSIF), fassif, Fasted State Simulated Intestine Fluid, read-out: Tsol FaSSIF

| solubility thermodynamic at 24 h [1] | Tsol FaSSIF [2] | solubility thermodynamic at 24 h [3] | solubility thermodynamic at 24 h [4] | SMILES | further results |
| --- | --- | --- | --- | --- | --- |
| 1000 µg/mL (≈ 2440 µM) | 67.4 µg/mL | 208 µg/mL (≈ 507 µM) | – | COc1cc2nc(C3COCCO3)cn2cc1NC(=O)c1cccn(C2CC2)c1=O (single isomer, unassigned) [Compound 8, 1-cyclopropyl-N-[2-(1,4-dioxan-2-yl)-7-methoxy-imidazo[1,2-a]pyridin-6-yl]-2-oxo-pyridine-3-carboxamide] | – |
| – | – | – | 43.9 µg/mL (≈ 103 µM) | COc1cc2nc(C3COCCO3)cn2cc1NC(=O)c1cccn(C2CCC2)c1=O (stereo not shown) [Compound 5, 1-cyclobutyl-N-[2-(1,4-dioxan-2-yl)-7-methoxy-imidazo[1,2-a]pyridin-6-yl]-2-oxo-pyridine-3-carboxamide] | – |
| 947 µg/mL (≈ 2320 µM) | – | – | 1010 µg/mL (≈ 2480 µM) | COc1cc2nc(C3CCOCC3)cn2cc1NC(=O)c1cccn(C2CC2)c1=O [Compound 3, (1-cyclopropyl-N-[7-methoxy-2-(oxan-4-yl)imidazo[1,2-a]pyridin-6-yl]-2-oxopyridine-3-carboxamide)] | – |
| 1020 µg/mL (≈ 2430 µM) | – | – | 19.3 µg/mL (≈ 45.9 µM) | COc1cc2nc(C3CCOCC3)cn2cc1NC(=O)c1cccc(C(F)(F)F)n1 [Compound 2, N-(7-methoxy-2-tetrahydropyran-4-yl-imidazo[1,2-a]pyridin-6-yl)-6-(trifluoromethyl)pyridine-2-carboxamide] | – |
| > 1000 µg/mL | – | > 1000 µg/mL | 28.2 µg/mL (≈ 68.7 µM) | COc1cc2nc(C3COCCO3)cn2cc1NC(=O)c1cccn(C2CC2)c1=O (racemic) [Compound 1, 1-cyclopropyl-N-[2-(1,4-dioxan-2-yl)-7-methoxy-imidazo[1,2-a]pyridin-6-yl]-2-oxo-pyridine-3-carboxamide] | – |
| – | 31.6 µg/mL | – | – | COc1cc2nc(C3COCCO3)cn2cc1NC(=O)c1cccn(C2CC2)c1=O (single isomer, unassigned) [Compound 7, 1-cyclopropyl-N-[2-(1,4-dioxan-2-yl)-7-methoxy-imidazo[1,2-a]pyridin-6-yl]-2-oxo-pyridine-3-carboxamide] | Tsol FaSSGF (Fasted State Simulated Gastric Fluid, 24 h, 37° C.): 958 µg/mL; Tsol FeSSIF (Fed State Simulated Intestine Fluid, 24 h, 37° C.): 117 µg/mL |
| – | 2.30, 2.30 μg/mL | – | – | NC(=O)c1cc2nc(C3COCCO3)cn2cc1NC(=O)c1cccc(C(F)(F)F)n1 (stereo not shown) [Compound 6, 2-(1,4-dioxan-2-yl)-6-[[6-(trifluoromethyl)pyridine-2-carbonyl]amino]imidazo[1,2-a]pyridine-7-carboxamide] | – |
| – | – | – | 6.42 µg/mL (≈ 14.3 µM) | CNC(=O)c1cc2nc(C3COCCO3)cn2cc1NC(=O)c1cccc(C(F)(F)F)n1 (stereo not shown) [Compound 9, 2-(1,4-dioxan-2-yl)-N-methyl-6-(6-(trifluoromethyl)picolinamido)imidazo[1,2-a]pyridine-7-carboxamide] | – |
| – | – | 270 µg/mL (≈ 591 µM) | – | COc1cc2nc(C3CCS(=O)(=O)CC3)cn2cc1NC(=O)c1cccn(C2CC2)c1=O [Compound 23, 1-cyclopropyl-N-(2-(1,1-dioxidotetrahydro-2H-thiopyran-4-yl)-7-methoxyimidazo[1,2-a]pyridin-6-yl)-2-oxo-1,2-dihydropyridine-3-carboxamide] | – |
| 335 µg/mL (≈ 777 µM) | – | – | 12.2 µg/mL (≈ 28.3 µM) | CC(F)(F)c1cccc(C(=O)Nc2cn3cc(C4COCCO4)nc3cc2C(N)=O)n1 (stereo not shown) [Compound 11, 6-(6-(1,1-difluoroethyl)picolinamido)-2-(1,4-dioxan-2-yl)imidazo[1,2-a]pyridine-7-carboxamide] | – |
